From ChEMBL document CHEMBL1201862, “PubChem BioAssay data set” (2004)
Active and inactive are the calls of the source.

Experiments:
Orexin receptor type 2 [1] = biological target: T1, Orexin receptor type 2 (Homo sapiens, UniProt O43614); assay: Counterscreen assay for antagonists of the orexin 1 receptor (OX1R; HCRTR1): Homogeneous Time Resolved Fluorescence (HTRF)-based cell-based dose response assay for antagonists of the orexin 2 receptor (OX2R; HCRTR2), run by assay provider.; type: functional
T1 sequence (O43614 whole entry): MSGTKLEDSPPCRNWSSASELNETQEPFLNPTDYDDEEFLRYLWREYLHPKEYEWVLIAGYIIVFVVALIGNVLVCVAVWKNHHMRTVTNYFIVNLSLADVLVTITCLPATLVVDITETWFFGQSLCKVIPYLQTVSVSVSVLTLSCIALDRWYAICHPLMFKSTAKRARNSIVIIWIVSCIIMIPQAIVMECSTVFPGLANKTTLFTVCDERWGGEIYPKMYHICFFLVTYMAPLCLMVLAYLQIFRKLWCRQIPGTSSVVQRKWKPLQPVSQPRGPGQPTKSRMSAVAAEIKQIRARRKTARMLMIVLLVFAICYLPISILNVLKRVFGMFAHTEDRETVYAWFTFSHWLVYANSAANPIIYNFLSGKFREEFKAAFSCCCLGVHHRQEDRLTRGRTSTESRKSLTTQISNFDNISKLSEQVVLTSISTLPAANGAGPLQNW

Orexin receptor type 2 [2] = biological target: T1, Orexin receptor type 2; assay: Counterscreen assay for antagonists of the orexin 1 receptor (OX1R; HCRTR1): Fluorescence-based cell-based dose response assay for antagonists of the orexin 2 receptor (OX2R; HCRTR2), run by assay provider.; type: functional
[3] = Counterscreen for antagonists of the orexin 1 receptor (OX1R; HCRTR1): Fluorescence-based cell-based high throughput dose response assay to identify antagonists of the parental CHO cell line. [Related pubchem assays (depositor defined):AID434989, AID435008, AID463079, AID485270, AID492963, AID492964, AID492965, AID493232, AID504699, AID504701]; type: functional
[4] = biological target: T2, Orexin/Hypocretin receptor type 1 (Homo sapiens, UniProt O43613); assay: Homogeneous Time Resolved Fluorescence (HTRF)-based cell-based high throughput dose response assay for antagonists of the orexin 1 receptor (OX1R; HCRTR1). [Related pubchem assays (depositor defined):AID434989, AID435008, AID463079, AID485270, AID492963, AID492964, AID492965, AID493232, AID504717, AID504718]; type: functional
T2 sequence (O43613 whole entry): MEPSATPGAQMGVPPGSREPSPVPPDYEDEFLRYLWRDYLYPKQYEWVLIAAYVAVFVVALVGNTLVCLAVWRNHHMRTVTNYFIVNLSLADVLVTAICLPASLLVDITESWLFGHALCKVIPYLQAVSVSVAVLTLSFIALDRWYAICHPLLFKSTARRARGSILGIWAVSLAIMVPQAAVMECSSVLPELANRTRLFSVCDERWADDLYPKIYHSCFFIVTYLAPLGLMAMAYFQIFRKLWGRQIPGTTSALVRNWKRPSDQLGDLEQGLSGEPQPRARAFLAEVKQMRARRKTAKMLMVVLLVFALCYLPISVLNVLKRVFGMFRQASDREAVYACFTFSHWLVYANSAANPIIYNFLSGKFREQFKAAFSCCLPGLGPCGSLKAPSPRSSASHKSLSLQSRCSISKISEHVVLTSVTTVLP

[5] = biological target: T2, Orexin/Hypocretin receptor type 1; assay: Fluorescence-based cell-based high throughput dose response assay for antagonists of the orexin 1 receptor (OX1R; HCRTR1). [Related pubchem assays (depositor defined):AID434989, AID435008, AID463079, AID485270, AID492963, AID492964, AID492965, AID493232, AID504717, AID504718]; type: functional
CHO-K1 = assay: Counterscreen for antagonists of the orexin 1 receptor (OX1R; HCRTR1): Homogeneous time resolved fluorescence (HTRF)-based cell-based dose response assay to identify antagonists of the parental CHO-K1 cell line. [Related pubchem assays (depositor defined):AID434989, AID435008, AID463079, AID485270, AID492963, AID492964, AID492965, AID493232, AID504699, AID504701]; type: functional; conditions: Cricetulus griseus;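 also: potency for inhibition of ATP-stimulated IP1 production as antagonists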
[6] = biological target: Interleukin-1 receptor-associated kinase 4 (Homo sapiens, UniProt Q9NWZ3); type: functional
Interleukin-1 receptor-associated kinase 4, sequence (Q9NWZ3 whole entry): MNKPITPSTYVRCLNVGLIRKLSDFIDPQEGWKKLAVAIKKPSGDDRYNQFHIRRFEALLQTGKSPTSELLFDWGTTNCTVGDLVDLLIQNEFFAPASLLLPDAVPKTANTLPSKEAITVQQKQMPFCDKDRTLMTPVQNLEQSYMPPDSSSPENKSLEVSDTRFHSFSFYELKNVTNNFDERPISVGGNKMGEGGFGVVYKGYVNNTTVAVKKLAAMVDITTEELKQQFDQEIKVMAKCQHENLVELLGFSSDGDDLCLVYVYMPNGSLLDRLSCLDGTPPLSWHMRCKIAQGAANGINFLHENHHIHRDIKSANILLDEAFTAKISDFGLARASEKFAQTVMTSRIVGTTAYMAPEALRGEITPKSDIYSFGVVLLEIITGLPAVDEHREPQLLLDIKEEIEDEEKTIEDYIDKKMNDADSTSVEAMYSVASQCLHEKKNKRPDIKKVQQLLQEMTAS

[7] = biological target: Cell division cycle 7-related protein kinase (Homo sapiens, UniProt O00311); type: functional;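 also: value obtained from a kinome-wide kinase panel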
Cell division cycle 7-related protein kinase, sequence (O00311 whole entry): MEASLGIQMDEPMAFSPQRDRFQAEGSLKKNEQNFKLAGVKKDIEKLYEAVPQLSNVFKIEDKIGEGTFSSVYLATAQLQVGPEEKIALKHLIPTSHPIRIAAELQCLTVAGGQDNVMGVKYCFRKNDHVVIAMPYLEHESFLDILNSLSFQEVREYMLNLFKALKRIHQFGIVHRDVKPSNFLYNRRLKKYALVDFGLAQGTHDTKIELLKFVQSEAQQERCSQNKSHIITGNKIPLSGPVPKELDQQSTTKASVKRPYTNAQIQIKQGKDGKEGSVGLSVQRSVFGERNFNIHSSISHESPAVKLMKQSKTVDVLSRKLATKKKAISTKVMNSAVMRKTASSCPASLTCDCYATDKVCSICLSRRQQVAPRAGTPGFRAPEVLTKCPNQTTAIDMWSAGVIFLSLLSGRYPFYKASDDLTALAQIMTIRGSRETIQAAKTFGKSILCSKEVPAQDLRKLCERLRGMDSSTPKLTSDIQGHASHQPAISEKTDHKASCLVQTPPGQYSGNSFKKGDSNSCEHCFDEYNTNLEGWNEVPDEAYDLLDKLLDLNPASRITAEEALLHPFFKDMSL

[8] = biological target: Serine/threonine-protein kinase pim-1 (Homo sapiens, UniProt P11309); type: functional
[9] = biological target: Mitogen-activated protein kinase kinase kinase kinase 4 (Homo sapiens, UniProt O95819); type: functional
[10] = biological target: MAP kinase-interacting serine/threonine-protein kinase 2 (Homo sapiens, UniProt Q9HBH9); type: functional
MAP kinase-interacting serine/threonine-protein kinase 2, sequence (Q9HBH9 whole entry): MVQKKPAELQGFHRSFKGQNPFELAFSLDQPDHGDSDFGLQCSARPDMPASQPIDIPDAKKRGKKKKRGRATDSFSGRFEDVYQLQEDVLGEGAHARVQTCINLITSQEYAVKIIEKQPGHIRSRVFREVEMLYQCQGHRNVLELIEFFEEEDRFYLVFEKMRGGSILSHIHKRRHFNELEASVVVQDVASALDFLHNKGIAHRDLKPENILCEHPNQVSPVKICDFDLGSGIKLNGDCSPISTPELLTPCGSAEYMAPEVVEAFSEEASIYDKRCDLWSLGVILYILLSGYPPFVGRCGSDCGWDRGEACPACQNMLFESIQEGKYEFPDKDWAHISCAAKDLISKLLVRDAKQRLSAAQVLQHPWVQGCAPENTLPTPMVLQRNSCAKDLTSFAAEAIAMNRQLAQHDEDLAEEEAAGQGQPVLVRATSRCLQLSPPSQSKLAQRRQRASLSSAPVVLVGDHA

[11] = biological target: Dual specificity protein kinase CLK4 (Homo sapiens, UniProt Q9HAZ1); type: functional
Dual specificity protein kinase CLK4, sequence (Q9HAZ1 whole entry): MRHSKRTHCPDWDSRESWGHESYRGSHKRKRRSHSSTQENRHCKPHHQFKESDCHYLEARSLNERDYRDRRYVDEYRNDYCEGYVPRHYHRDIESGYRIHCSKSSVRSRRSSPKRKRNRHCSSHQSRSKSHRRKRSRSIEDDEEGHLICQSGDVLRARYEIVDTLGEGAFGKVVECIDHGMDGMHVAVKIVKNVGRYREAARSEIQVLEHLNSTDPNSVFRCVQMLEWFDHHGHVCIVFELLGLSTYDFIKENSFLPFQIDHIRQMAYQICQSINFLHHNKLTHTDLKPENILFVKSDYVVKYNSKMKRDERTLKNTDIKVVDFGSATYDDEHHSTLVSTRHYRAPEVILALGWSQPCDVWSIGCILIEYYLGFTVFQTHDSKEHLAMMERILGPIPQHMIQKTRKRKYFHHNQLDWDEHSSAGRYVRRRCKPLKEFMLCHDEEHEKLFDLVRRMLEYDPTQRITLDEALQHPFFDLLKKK

[12] = biological target: Homeodomain-interacting protein kinase 2 (Homo sapiens, UniProt Q9H2X6); type: functional;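 also: measured within a kinome-wide kinase profiling panel, HIPK2 being one panel member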
[13] = biological target: cAMP-dependent protein kinase catalytic subunit alpha (Homo sapiens, UniProt P17612); type: functional
[14] = biological target: T3, Glycogen synthase kinase-3 beta (Homo sapiens, UniProt P49841); type: functional;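 as to Ki: value comes from a broad kinome profiling panel, with GSK3B as the panel member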
T3 sequence (P49841 whole entry, the tested form may be a part): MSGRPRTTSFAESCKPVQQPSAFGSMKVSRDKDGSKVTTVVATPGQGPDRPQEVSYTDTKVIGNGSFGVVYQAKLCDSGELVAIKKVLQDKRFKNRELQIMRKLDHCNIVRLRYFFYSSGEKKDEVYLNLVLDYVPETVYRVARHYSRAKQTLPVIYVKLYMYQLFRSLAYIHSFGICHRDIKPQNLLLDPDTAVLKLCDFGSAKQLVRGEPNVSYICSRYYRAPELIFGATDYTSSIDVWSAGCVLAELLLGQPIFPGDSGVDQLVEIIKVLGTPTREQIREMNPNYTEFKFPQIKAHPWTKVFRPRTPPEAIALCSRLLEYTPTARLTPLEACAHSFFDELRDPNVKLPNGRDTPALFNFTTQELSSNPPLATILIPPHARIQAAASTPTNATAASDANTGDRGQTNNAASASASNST

LIM domain kinase 1 = LIM domain kinase 1 (Homo sapiens, UniProt P53667); assay: Navigating the Kinome. Panel member name: LIMK1; type: functional
[15] = biological target: T4, Serine/threonine-protein kinase Chk1 (Homo sapiens, UniProt O14757); type: functional;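 also: measured as one member of a kinome-wide kinase profiling panel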
T4 sequence (O14757 whole entry): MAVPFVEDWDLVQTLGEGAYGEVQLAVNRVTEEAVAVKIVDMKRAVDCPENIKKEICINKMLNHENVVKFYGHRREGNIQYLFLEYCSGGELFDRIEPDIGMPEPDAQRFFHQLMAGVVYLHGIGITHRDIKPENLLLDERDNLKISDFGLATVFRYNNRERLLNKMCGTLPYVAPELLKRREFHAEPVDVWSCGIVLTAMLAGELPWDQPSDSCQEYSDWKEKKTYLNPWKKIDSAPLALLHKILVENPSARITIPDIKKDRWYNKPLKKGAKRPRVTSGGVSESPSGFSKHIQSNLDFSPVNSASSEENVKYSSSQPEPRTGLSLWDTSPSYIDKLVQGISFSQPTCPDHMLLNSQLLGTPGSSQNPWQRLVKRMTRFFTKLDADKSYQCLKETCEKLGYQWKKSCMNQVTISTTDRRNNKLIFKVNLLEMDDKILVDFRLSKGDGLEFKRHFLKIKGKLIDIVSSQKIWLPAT

[16] = biological target: Cyclin-dependent kinase 5 (Homo sapiens, UniProt Q00535); type: functional;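 also: CDK5 measured as one member of a kinase profiling panel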
[17] = biological target: T5, High affinity choline transporter 1 (Homo sapiens, UniProt Q9GZV3); assay: human choline transporter potentiators, potency – cell-based, 10-point CRC, membrane potential dye, dose response (AID 602376); type: functional
T5 sequence (Q9GZV3 whole entry): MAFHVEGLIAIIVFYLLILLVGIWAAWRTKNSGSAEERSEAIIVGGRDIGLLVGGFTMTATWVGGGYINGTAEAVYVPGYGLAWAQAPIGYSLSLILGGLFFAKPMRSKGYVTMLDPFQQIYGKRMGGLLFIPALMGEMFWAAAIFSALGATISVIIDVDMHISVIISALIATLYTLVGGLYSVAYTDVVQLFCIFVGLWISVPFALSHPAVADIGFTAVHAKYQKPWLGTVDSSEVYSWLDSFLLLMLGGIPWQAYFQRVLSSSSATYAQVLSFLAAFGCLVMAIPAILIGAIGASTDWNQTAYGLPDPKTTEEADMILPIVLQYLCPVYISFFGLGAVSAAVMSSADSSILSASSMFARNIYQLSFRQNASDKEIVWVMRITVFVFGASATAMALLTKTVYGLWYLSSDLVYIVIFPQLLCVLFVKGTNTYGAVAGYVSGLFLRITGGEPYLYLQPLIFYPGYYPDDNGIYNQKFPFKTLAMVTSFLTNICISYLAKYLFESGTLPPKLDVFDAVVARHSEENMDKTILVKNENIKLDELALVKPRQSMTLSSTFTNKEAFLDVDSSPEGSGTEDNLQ

Prothrombin = Prothrombin (Bos taurus, UniProt P00735); assay: thrombin protease inhibitors – biochemical, fluorescence polarization, uHTS hits, dose response (AID 602369); type: functional
[18] = biological target: 72 kDa type IV collagenase (Homo sapiens, UniProt P08253); assay: Dose Response validation of uHTS RPN11 inhibitor hits using a MMP-2 Fluorescence assay.; type: functional
72 kDa type IV collagenase, sequence (P08253 whole entry, the tested form may be a part): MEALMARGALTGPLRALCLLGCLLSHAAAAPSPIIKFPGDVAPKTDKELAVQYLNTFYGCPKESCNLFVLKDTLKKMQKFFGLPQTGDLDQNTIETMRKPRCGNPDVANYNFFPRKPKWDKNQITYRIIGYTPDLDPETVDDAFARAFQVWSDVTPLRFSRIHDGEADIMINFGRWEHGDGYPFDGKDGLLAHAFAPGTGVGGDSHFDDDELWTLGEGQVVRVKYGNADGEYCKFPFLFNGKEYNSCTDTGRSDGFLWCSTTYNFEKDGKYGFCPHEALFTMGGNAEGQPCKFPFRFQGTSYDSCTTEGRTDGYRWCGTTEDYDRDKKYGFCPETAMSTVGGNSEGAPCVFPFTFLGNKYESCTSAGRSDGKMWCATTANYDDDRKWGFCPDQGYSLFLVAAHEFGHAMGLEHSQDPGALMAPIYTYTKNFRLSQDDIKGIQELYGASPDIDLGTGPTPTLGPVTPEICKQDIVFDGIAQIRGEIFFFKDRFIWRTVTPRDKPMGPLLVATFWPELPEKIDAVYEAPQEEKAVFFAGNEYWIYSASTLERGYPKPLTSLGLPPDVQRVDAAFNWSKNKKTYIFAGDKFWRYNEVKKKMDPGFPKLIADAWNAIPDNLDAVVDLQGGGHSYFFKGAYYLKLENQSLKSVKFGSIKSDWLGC

[19] = biological target: T6, RNA-binding protein pos-1 (Caenorhabditis elegans, UniProt G5EF15); assay: disruptors of C. elegans POS-1 RNA interaction – biochemical, fluorescence polarization, dose response (AID 1964);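 also: purified POS-1 fused to maltose binding protein made in E. coli; potency of compounds blocking POS-1 binding to fluorescent RNA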
T6 sequence (G5EF15 whole entry): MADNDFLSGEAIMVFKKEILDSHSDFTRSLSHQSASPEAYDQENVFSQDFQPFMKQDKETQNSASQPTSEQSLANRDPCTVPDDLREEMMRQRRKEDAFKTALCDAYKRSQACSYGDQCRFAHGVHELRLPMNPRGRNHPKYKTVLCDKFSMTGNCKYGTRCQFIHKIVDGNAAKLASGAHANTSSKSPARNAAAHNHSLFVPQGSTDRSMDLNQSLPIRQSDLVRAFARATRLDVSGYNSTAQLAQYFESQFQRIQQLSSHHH

[20] = biological target: 26S proteasome non-ATPase regulatory subunit 14 (Homo sapiens, UniProt O00487); assay: inhibition of proteasome subunit RPN11 – biochemical, fluorescence polarization, uHTS hits, confirmation (AID 602368); type: functional
26S proteasome non-ATPase regulatory subunit 14, sequence (O00487 whole entry): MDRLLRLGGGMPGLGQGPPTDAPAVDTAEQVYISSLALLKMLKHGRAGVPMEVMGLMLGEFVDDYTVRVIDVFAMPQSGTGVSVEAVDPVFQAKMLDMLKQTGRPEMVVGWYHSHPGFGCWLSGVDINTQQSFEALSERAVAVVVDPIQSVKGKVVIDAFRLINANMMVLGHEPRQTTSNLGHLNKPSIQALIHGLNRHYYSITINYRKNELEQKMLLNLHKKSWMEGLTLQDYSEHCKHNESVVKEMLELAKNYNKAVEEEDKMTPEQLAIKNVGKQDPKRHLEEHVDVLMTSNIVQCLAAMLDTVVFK

[21] = biological target: T7, Zinc finger protein mex-5 (Caenorhabditis elegans, UniProt Q9XUB2); assay: potency of MEX-5 RNA-binding blockers – biochemical, C. elegans, fluorescence polarization, dose response (AID 1960)
T7 sequence (Q9XUB2 whole entry): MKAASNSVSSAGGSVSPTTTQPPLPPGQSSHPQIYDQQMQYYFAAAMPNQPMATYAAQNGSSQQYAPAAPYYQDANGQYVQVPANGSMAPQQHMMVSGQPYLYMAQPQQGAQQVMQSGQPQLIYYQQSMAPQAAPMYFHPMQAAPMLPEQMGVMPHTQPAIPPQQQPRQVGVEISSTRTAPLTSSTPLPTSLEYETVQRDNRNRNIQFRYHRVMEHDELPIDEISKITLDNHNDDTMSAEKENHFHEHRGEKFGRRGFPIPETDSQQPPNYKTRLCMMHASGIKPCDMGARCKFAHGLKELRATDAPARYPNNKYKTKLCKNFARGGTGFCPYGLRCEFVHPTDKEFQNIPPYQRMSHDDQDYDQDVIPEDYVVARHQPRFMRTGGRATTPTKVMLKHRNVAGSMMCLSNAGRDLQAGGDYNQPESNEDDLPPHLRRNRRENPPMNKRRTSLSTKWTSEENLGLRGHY

[22] = biological target: DNA dC->dU-editing enzyme APOBEC-3A (Homo sapiens, UniProt P31941); assay: SAR analysis of small molecule inhibitors of APOBEC3A DNA Deaminase via a fluorescence-based single-stranded DNA deaminase assay.; type: functional; conditions: read-out: IC50_Mean
DNA dC->dU-editing enzyme APOBEC-3A, sequence (P31941 whole entry): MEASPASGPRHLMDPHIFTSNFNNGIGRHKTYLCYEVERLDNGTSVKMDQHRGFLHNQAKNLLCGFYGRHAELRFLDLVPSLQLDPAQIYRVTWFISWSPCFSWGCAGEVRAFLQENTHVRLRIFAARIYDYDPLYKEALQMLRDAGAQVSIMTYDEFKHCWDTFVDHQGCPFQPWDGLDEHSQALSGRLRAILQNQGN

[23] = biological target: DNA dC->dU-editing enzyme APOBEC-3G (Homo sapiens, UniProt Q9HC16); assay: inhibition of APOBEC3G ssDNA deamination – biochemical, fluorescence, single-stranded DNA substrate, SAR follow-up (AID 602136); type: functional; conditions: read-out: IC50_Mean
DNA dC->dU-editing enzyme APOBEC-3G, sequence (Q9HC16 whole entry): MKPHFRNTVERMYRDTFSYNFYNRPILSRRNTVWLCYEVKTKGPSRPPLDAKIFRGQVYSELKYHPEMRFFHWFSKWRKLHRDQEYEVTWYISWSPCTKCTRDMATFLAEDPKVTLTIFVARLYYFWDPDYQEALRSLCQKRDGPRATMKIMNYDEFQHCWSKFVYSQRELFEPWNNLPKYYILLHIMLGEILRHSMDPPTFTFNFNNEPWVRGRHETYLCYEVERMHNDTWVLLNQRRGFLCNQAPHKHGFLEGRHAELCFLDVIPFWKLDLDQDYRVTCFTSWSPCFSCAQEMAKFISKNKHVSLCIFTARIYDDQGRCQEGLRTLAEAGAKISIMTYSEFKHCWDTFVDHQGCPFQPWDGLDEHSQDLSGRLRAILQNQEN

Streptokinase A = biological target: T8, Streptokinase A (Streptococcus pyogenes serotype M1, UniProt P10520); assay: viability-normalized secreted streptokinase activity reduction – plasminogen activation absorbance, OD405, dose response (AID 1914); type: functional, Streptococcus pyogenes M1 GAS;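 also: secreted streptokinase activity via plasminogen activation per viability signal from cell pellet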
T8 sequence (P10520 whole entry): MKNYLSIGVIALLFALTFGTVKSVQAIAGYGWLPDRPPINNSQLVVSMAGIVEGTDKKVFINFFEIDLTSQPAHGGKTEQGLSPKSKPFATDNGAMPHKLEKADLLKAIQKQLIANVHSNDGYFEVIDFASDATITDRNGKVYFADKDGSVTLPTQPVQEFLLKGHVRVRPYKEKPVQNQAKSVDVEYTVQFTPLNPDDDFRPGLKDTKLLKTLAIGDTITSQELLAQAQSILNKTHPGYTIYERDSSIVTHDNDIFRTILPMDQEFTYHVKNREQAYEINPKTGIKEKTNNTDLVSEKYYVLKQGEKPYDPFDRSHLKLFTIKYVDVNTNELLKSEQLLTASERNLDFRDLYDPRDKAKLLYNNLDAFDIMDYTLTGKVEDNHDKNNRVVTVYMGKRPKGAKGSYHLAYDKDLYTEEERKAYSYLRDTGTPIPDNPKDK

Streptococcus = assay: GAS UMAA2166 growth inhibition – luminescence, BacTiterGlo, counter-screen for streptokinase expression inhibitor project, dose response (AID 1915); type: functional, organism-based;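 also: potency for reduction of bacterial viability or growth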
[24] = biological target: Cyclin-dependent kinase 5/CDK5 activator 1 (Homo sapiens, UniProt Q00535); assay: human CDK5 activity blockade – biochemical, microfluidic mobility shift, dry powder, selectivity assay for GSK-3 alpha inhibitor project, dose response (AID 588430)
[25] = biological target: Glycogen synthase kinase-3 alpha (Homo sapiens, UniProt P49840); assay: Inhibition of Human GSK-3 alpha Activity Measured in Biochemical System Using Microfluidics - 2063-06_Inhibitor_Dose_DryPowder_Activity_Set2. [Related pubchem assays (depositor defined):AID2709]
[26] = Luminescence Cell-Based Dose Retest to Confirm Inhibitors of Cancer Stem Cells. [Related pubchem assays (depositor defined):AID2717, AID2721]; type: functional; conditions: Homo sapiens
[27] = tested on: Streptococcus sp. 'group A'; assay: Streptococcus pyogenes SK(-)GAS viability under kanamycin – luminescence, BacTiterGlo, confirmation, counter-screen for streptokinase expression inhibitor project, dose response (AID 1900); type: functional, organism-based
[28] = biological target: T3, Glycogen synthase kinase-3 beta; assay: Inhibition of Human GSK-3 beta Activity Measured in Biochemical System Using Microfluidics - 2063-05_Inhibitor_Dose_DryPowder_Activity_Set2. [Related pubchem assays (depositor defined):AID2709]

SMILES: CCc1cc2c(SCC(=O)N(CC)c3c(N)n(Cc4ccccc4)c(=O)[nH]c3=O)ncnc2s1
- IC50 (Orexin receptor type 2 [1]): 1710 nM (active)
- IC50 (Orexin receptor type 2 [2]): 31500 nM (inactive)
- IC50 [3]: > 49800 nM (inactive)
- IC50 [4]: 340 nM (active)
- IC50 [5]: 6120 nM (active)
- IC50 (CHO-K1): > 66200 nM (inactive)

SMILES: CC(C)(Nc1nccc(-c2c[nH]c3ncccc23)n1)c1ccccc1
- Ki [6]: 15.8 nM (active)
- Ki [7]: 20 nM (active)
- Ki [8]: 1260 nM (active)
- Ki [9]: 15.8 nM (active)
- Ki [10]: 25.1 nM (active)
- Ki [11]: 3.16 nM (active)
- Ki [12]: 316 nM (active)
- Ki [13]: 12.6 nM (active)
- Ki [14]: 126 nM (active)

SMILES: O=[N+]([O-])c1ccc2[nH]c(-c3ccco3)nc2c1
- Ki (LIM domain kinase 1): 3160 nM (active)
- Ki [15]: 2510 nM (active)
- Ki [11]: 1580 nM (active)
- Ki [16]: 2510 nM (active)

SMILES: c1ccc(Cn2c[n+](Cc3ccccc3)c3ccccc32)cc1
- EC50 [17]: 5760 nM (active)

SMILES: O=C(N/N=C/c1ccc(-c2ccc([N+](=O)[O-])cc2)o1)c1cccnc1
- IC50 (Prothrombin): 19800 nM (active)
- IC50 [18]: > 100000 nM (inactive)
- EC50 [19]: > 300000 nM (not active)
- IC50 [20]: 28600 nM (active)
- EC50 [21]: 27400 nM (active)

SMILES: CCn1c(=O)c2ccccc2n2c(COc3ccc4c(C(F)(F)F)cc(=O)oc4c3)nnc12
- IC50 [22]: > 99000 nM (inactive)
- IC50 [23]: > 99000 nM (inactive)

SMILES: Nc1nc(Nc2ccccc2)nc(NC2CCCCC2)c1[N+](=O)[O-]
- EC50 (Streptokinase A): > 150000 nM (not active)
- EC50 (Streptococcus): 8070 nM (active)
- AC50 [24]: 2360 nM (active)
- AC50 [25]: 2600 nM (active)
- AC50 [26]: 4620 nM (active)
- EC50 [27]: 6850 nM (active)
- AC50 [28]: 1040 nM (active)
